Experimental findings from patent US20120264735A1 (priority 2009, published 2012) are described below.

pIC50: −log10 of the molar value. Bounds are passed on as bounds.

T1 sequence (P08581 25-1390): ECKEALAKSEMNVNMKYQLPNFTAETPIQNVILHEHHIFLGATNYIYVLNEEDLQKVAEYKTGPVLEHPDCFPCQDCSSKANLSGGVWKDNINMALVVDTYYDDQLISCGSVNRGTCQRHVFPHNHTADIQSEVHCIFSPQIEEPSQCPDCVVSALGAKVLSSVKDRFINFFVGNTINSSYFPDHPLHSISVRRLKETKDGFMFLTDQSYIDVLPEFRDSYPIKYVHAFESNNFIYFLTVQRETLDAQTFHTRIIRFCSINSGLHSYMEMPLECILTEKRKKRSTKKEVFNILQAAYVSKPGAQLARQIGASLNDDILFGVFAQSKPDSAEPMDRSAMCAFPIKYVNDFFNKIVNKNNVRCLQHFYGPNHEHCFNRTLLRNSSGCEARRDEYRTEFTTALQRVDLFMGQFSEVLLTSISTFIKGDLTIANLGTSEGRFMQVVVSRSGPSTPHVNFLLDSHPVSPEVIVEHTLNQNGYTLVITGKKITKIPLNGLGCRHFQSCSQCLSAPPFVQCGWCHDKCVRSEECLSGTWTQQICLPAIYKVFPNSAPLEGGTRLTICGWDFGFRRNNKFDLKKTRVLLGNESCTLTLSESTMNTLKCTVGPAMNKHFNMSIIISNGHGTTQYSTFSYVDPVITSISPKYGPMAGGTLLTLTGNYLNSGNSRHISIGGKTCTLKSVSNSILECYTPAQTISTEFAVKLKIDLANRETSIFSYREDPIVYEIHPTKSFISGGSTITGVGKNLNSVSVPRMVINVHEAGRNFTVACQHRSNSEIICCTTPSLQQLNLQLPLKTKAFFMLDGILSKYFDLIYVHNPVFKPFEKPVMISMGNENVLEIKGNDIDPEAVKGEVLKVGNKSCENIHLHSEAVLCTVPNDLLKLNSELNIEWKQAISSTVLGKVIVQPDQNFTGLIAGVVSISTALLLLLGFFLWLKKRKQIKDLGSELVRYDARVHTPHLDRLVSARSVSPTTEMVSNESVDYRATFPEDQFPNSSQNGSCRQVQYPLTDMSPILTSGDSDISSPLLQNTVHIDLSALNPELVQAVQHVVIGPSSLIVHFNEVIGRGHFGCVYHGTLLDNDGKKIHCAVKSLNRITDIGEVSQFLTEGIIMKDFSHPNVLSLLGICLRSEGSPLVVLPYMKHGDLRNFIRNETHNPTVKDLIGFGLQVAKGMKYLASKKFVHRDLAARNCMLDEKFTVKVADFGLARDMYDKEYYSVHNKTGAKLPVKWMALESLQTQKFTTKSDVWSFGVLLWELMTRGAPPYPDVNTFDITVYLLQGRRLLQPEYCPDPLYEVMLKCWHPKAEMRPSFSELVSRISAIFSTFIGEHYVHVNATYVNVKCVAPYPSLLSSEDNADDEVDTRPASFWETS

This test concerns the target T1, c-Met kinase (recombinant c-Met) (Homo sapiens, UniProt P08581).
T1 construct: 0.27 nM recombinant c-Met
Nature of the test: In vitro kinase assay I (homogeneous time-resolved fluorescence tyrosine kinase assay). It is filed as biochemical. An outline of the steps:
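Biotinylated peptide (0.5 μM) phosphorylated by 0.2 nM recombinant c-Met with 50 μM MgATP, 60 min at room temperature, pH 7.4, 5% DMSO. EDTA stop; HTRF read with Eu-anti-phosphotyrosine antibody and streptavidin-APC. IC50 from 4-parameter logistic fit.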
On to `CCCOC(=O)Nc1cccc(Cc2nn(-c3cccc(C#N)c3)ccc2=O)c1` [Example 580, propyl (3-{[1-(3-cyanophenyl)-4-oxo-1,4-dihydropyridazin-3-yl]methyl}phenyl)carbamate], for which the pIC50 (as a rule, −log10 of the IC50, conventionally taken in molar units) was greater than 7.00.

For `CC(c1cccc(-c2ncc(N3CCOCC3)cn2)c1)c1nn(-c2cnn(C)c2)ccc1=O` (single isomer, unassigned) [Example 243, 1,1-methyl-1H-pyrazol-4-yl)-3-{(1S or R)-1-[3-(5-morpholin-4-ylpyrimidin-2-yl)phenyl]ethyl}pyridazin-4(1H) one], the pIC50 was greater than 7.00.

As to `COCc1cnc(-c2cccc(C(C)c3nn(-c4cnn(C)c4)ccc3=O)c2)nc1` (single isomer, unassigned) [Example 219, 3-((1S or R)-1-{3-[5-(methoxymethyl)pyrimidin-2-yl]phenyl}ethyl)-1-(1-methyl-1H-pyrazol-4-yl)pyridazin-4(1H)-one], the pIC50 is 6.00 to 7.00.

`C[C@H](O)[C@@H](C)Oc1cnc(-c2cccc(Cc3nn(-c4cnn(C)c4)ccc3=O)c2)nc1` (single isomer, unassigned) [Example 376]: the pIC50 was greater than 7.00.

As for `O=C(Nc1cccc(Cc2nn(-c3cc(F)cc(F)c3)ccc2=O)c1)OCC1CCOCC1` [Example 606, tetrahydro-2H-pyran-4-ylmethyl (3-{[1-(3,5-difluorophenyl)-4-oxo-1,4-dihydropyridazin-3-yl]methyl}phenyl)carbamate], the pIC50 is greater than 7.00.

In the case of `CCOc1cnc(-c2cccc(Cc3nn(-c4cnn(C5CN(C)C5)c4)ccc3=O)c2)nc1` [Example 668, 3-[3-(5-Ethoxypyrimidin-2-yl)benzyl]-1-[1-(1-methylazetidin-3-yl)-1H-pyrazol-4-yl]pyridazin-4(1H)-one], the pIC50 is 6.00 to 7.00.

Take `CCn1cc(-n2ccc(=O)c(C(C)c3cccc(-c4ncc(-c5cnn(C)c5)cn4)c3)n2)cn1` (single isomer, unassigned) [Example 234, 1-(1-ethyl-1H-pyrazol-4-yl)-3-[(1S or R)-1-{3-[5-(1-methyl-1H-pyrazol-4-yl)pyrimidin-2-yl]phenyl}ethyl]pyridazin-4(1H)-one]: the pIC50 is greater than 7.00.

Take `Cn1cc(-n2ccc(=O)c(Cc3cccc(-c4ncn(CCC#N)n4)c3)n2)cn1` [Example 709, 3-[3-(3-{[1-(1-methyl-1H-pyrazol-4-yl)-4-oxo-1,4-dihydropyridazin-3-yl]methyl}phenyl)-1H-1,2,4-triazol-1-yl]propanenitrile]: the pIC50 is 6.00 to 7.00.

On to `CC(C)(O)COc1cnc(-c2cccc(Cc3nn(-c4cccc(C#N)c4)ccc3=O)c2)nc1` [Example 361, 3-[3-{3-[5-(2-hydroxy-2-methylpropoxy)pyrimidin-2-yl]benzyl}-4-oxopyridazin-1(4H)-yl]benzonitrile], for which the pIC50 is greater than 7.00.

As to `Cn1cc(-n2ccc(=O)c(Cc3cccc(-c4ncc(-c5cncc(F)c5)cn4)c3)n2)cn1` [Example 414, 3-{3-[5-(5-fluoropyridin-3-yl)pyrimidin-2-yl]benzyl}-1-(1-methyl-1H-pyrazol-4-yl)pyridazin-4(1H)-one], the pIC50 was greater than 7.00.

As to `CCCn1cnc(-c2cccc(C(C)c3nn(-c4cnn(CC)c4)ccc3=O)c2)n1` (single isomer, unassigned) [Example 688, 1-(1-ethyl-1H-pyrazol-4-yl)-3-{(1S or R)-1-[3-(1-propyl-1H-1,2,4-triazol-3-yl)phenyl]ethyl} pyridazin-4(1H)-one], the negative-log IC50 (pIC50) was 6.00 to 7.00.

`Cn1cc(-n2ccc(=O)c(Cc3cccc(NC(=O)OCC(F)F)c3)n2)cn1` [Example 576, 2,2-difluoroethyl (3-{[1-(1-methyl-1H-pyrazol-4-yl)-4-oxo-1,4-dihydropyridazin-3-yl]methyl}phenyl)carbamate]: the pIC50 was greater than 7.00.

Consider `COCc1cnc(-c2cccc(Cc3nn(-c4cnn(C)c4)ccc3=O)c2)nc1` [Example 161, 3-{3-[5-(methoxymethyl)pyrimidin-2-yl]benzyl}-1-(1-methyl-1H-pyrazol-4-yl)pyridazin-4(1H)-one], for which the negative-log IC50 (pIC50) is greater than 7.00.

Take `CCn1cc(-n2ccc(=O)c(Cc3cccc(-c4ncc(OC5CN(C(=O)OC(C)(C)C)C5)cn4)c3)n2)cn1` [Example 289, tert-butyl 3-{[2-(3-{[1-(1-ethyl-1H-pyrazol-4-yl)-4-oxo-1,4-dihydropyridazin-3-yl]methyl}phenyl)pyrimidin-5-yl]oxy}azetidine-1-carboxylate]: the pIC50 was greater than 7.00.

With `CCOc1cnc(-c2cccc(Cc3nn(-c4cccc(C#N)c4)ccc3=O)c2)nc1` [Example 72, 3-[3-[3-(5-ethoxypyrimidin-2-yl)benzyl]-4-oxopyridazin-1(4H)-yl]benzonitrile], the pIC50 was greater than 7.00.

Turning to `Cn1cc(-n2ccc(=O)c(Cc3cccc(-c4ncc(OCC(=O)N5CCOCC5)cn4)c3)n2)cn1` [Example 280, 1-(1-methyl-1H-pyrazol-4-yl)-3-{3-[5-(2-morpholin-4-yl-2-oxoethoxy)pyrimidin-2-yl]benzyl}pyridazin-4(1H)-one], the negative logarithm of the IC50 (pIC50) is greater than 7.00.

In the case of `COCCOC(=O)Nc1cccc(Cc2nn(-c3cccc(C#N)c3)ccc2=O)c1` [Example 502, 2-methoxyethyl (3-{[1-(3-cyanophenyl)-4-oxo-1,4-dihydropyridazin-3-yl]methyl}phenyl)carbamate], the pIC50 was greater than 7.00.

Take `CCn1cc(-n2ccc(=O)c(Cc3cccc(-c4ncc(OCCOC)cn4)c3)n2)cn1` [Example 151, 1-(1-ethyl-1H-pyrazol-4-yl)-3-{3-[5-(2-methoxyethoxy)pyrimidin-2-yl]benzyl}pyridazin-4(1H)-one]: the pIC50 was greater than 7.00.

With `CCOc1cnc(-c2cccc(C(CC)c3nn(-c4cnn(C)c4)ccc3=O)c2)nc1` (single isomer, unassigned) [Example 205, 3-{(1S or R)-1-[3-(5-ethoxypyrimidin-2-yl)phenyl]propyl}-1-(1-methyl-1H-pyrazol-4-yl)pyridazin-4(1H)-one], the negative logarithm of the IC50 (pIC50) is 6.00 to 7.00.

`CC(C)COC(=O)Nc1cccc(Cc2nn(-c3cnn(CCCC(=O)NC4COC4)c3)ccc2=O)c1` [Example 701, 2-methylpropyl {3-[(1-{1-[4-(oxetan-3-ylamino)-4-oxobutyl]-1H-pyrazol-4-yl}-4-oxo-1,4-dihydropyridazin-3-yl)methyl]phenyl} carbamate]: the pIC50 was greater than 7.00.

As for `N#Cc1cccc(-n2ccc(=O)c(Cc3cccc(NC(=O)OCCn4cncn4)c3)n2)c1` [Example 587, 2-(1H-1,2,4-triazol-1-yl)ethyl (3-{[1-(3-cyanophenyl)-4-oxo-1,4-dihydropyridazin-3-yl]methyl}phenyl)carbamate], the pIC50 is greater than 7.00.

With `CCn1cc(-n2ccc(=O)c(C(C)c3cccc(-c4ncc(OCC5CCCO5)cn4)c3)n2)cn1` (single isomer, unassigned) [Example 298, 1-(1-ethyl-1H-pyrazol-4-yl)-3-[(1R or S)-1-{3-[5-(tetrahydrofuran-2-ylmethoxy)pyrimidin-2-yl]phenyl}ethyl]pyridazin-4(1H)-one], the pIC50 was greater than 7.00.

`Cn1cc(-n2ccc(=O)c(Cc3cccc(-c4ncc(N5CCC(C(N)=O)CC5)cn4)c3)n2)cn1` [Example 445, 1-[2-(3-{[1-(1-methyl-1H-pyrazol-4-yl)-4-oxo-1,4-dihydropyridazin-3-yl]methyl}phenyl)pyrimidin-5-yl]piperidine-4-carboxamide]: the negative logarithm of the IC50 (pIC50) was greater than 7.00.

Turning to `Cn1cc(-n2ccc(=O)c(Cc3cccc(-c4ncc(CN5CCNCC5)cn4)c3)n2)cn1` [Example 433], the pIC50 was greater than 7.00.

In the case of `CN1CCN(c2cnc(-c3cccc(Cc4nn(-c5cnn(C)c5)ccc4=O)c3)nc2)CC1` [Example 467, 3-{3-[5-(4-methyl-piperazin-1-yl)pyrimidin-2-yl]benzyl}-1-(1-methyl-1H-pyrazol-4-yl)pyridazin-4(1H)-one], the pIC50 is greater than 7.00.

For the compound `CCn1cc(-n2ccc(=O)c(C(C)c3cccc(-c4ncc(OCC5(C)COC5)cn4)c3)n2)cn1` (single isomer, unassigned) [Example 304, 1-(1-ethyl-1H-pyrazol-4-yl)-3-[(1R or S)-1-(3-{5-[(3-methyloxetan-3-yl)methoxy]pyrimidin-2-yl}phenyl)ethyl]pyridazin-4(1H)-one], the pIC50 is greater than 7.00.

Consider `Cn1cc(-n2ccc(=O)c(Cc3cccc(-c4ncc(NC(=O)CN5CCCC5=O)cn4)c3)n2)cn1` [Example 463, N-[2-(3-{[1-(1-methyl-1H-pyrazol-4-yl)-4-oxo-1,4-dihydro-pyridazin-3-yl]methyl}phenyl)pyrimidin-5-yl]-2-(2-oxopyrrolidin-1-yl)acetamide], for which the pIC50 is greater than 7.00.

Take `CC(C)(O)COc1cnc(-c2cccc(Cc3nn(-c4cc(Cl)cc(C#N)c4)ccc3=O)c2)nc1` [Example 371, 3-chloro-5-[3-{3-[5-(2-hydroxy-2-methylpropoxy)pyrimidin-2-yl]benzyl}-4-oxopyridazin-1(4H)-yl]benzonitrile]: the pIC50 is greater than 7.00.

Take `COCCOc1cnc(-c2cccc(Cc3nn(-c4ccc(Cl)c(F)c4)ccc3=O)c2)nc1` [Example 153, 1-(4-chloro-3-fluorophenyl)-3-{3-[5-(2-methoxyethoxy)pyrimidin-2-yl]benzyl}pyridazin-4(1H)-one]: the negative logarithm of the IC50 (pIC50) was greater than 7.00.

As to `CCOC(C)(C)c1cnc(-c2cccc(Cc3nn(-c4cnn(C)c4)ccc3=O)c2)nc1` [Example 169, 3-{3-[5-(1-ethoxy-1-methylethyl)pyrimidin-2-yl]benzyl}-1-(1-methyl-1H-pyrazol-4-yl)pyridazin-4(1H)-one], the pIC50 was 6.00 to 7.00.

As to `CN(C)C(=O)CCn1cnc(-c2cccc(Cc3nn(-c4cnn(C)c4)ccc3=O)c2)n1` [Example 710, N,N-dimethyl-3-[3-(3-{[1-(1-methyl-1H-pyrazol-4-yl)-4-oxo-1,4-dihydropyridazin-3-yl]methyl}phenyl)-1H-1,2,4-triazol-1-yl]propanamide], the pIC50 was 6.00 to 7.00.

With `CCCn1cc(-n2ccc(=O)c(Cc3cccc(NC(=O)OCC(C)C)c3)n2)cn1` [Example 113, 2-methylpropyl (3-{[4-oxo-1-(1-propyl-1H-pyrazol-4-yl)-1,4-dihydropyridazin-3-yl]methyl}phenyl)carbamate], the pIC50 is greater than 7.00.
